Columns and labels:
[1] = tested on: ERK1/2 phosphorylation (SOS-PYLcs and myr-ABIcs); assay: SOS activation: ABA-induced ERK phosphorylation by SOS localization; type: cell-based, human; conditions: cells expressing SOS-PYLcs and myr-ABIcs; 250 μM ABA
Description: Six-well plates of 293T cells containing 0.5×10^6 cells per well were transfected with 3 μg of total DNA using FuGENE HD (Roche). Cells were transfected with expression plasmids encoding myr-ABI, SOS-PYL, SOS-FKBP, myr-SOS, and an expression vector control, pUC19. ABA (250 μM) was added at 3, 6, 12, and 24 hours before harvesting the cells. Cells were lysed in 1× lysis buffer [50 mM Tris-HCl (pH 7.5), 300 mM NaCl, 1% NP-40, 0.1% SDS, 0.5% sodium deoxycholate, 20 mM NaF, 1 mM Na3VO4, 1 mM phenylmethylsulfonyl fluoride (PMSF), and 1× protease inhibitor mixture (Calbiochem)] for 20 min at 4° C. After centrifugation at 14,000 g for 15 min, proteins were separated on 4 to 12% bis-tris NuPAGE gels (Invitrogen) and transferred to polyvinylidene difluoride membranes. […] Infrared dye 800 and 680 anti-rabbit or anti-mouse secondary antibodies were incubated at room temperature for 1 hour in 10% BSA-PBST and detected with a LI-COR/Odyssey scanner. […]

[2] = ABA stability in cell culture (luciferase biofunctional readout); type: in vitro ADME, Chinese hamster
Description: FIG. 3C provides the results of a stability test of ABA in cell culture conditions. CHO cells were pre-transfected with the activation and reporter DNA constructs for 24 hours. 100 μM ABA was then added to the culture and cells were assayed for luciferase activity after 10 hours. During the 10-hour incubation, the cell culture media were replaced with media containing freshly added ABA every 1, 2.5, 5 hour or no replacement. FIG. 4A illustrates the results of an experiment in which human serum pre-incubated ABA was used to induce luciferase transcription. ABA was incubated with pure non-heat inactivated human serum at 37° C. for indicated time period. ABA containing serum was then added to the CHO cell culture to a final 100 μM ABA concentration for 25 hours and cells were assayed for luciferase activity. The cells were pre-transfected with the activation and reporter DNA constructs for 24 hours. FIG. 4B illustrates the results of an experiment in which fetal bovine serum pre-incubated ABA was used to induce luciferase transcription. ABA was incubated with pure heat inactivated fetal bovine serum at 37° C. for indicated time period. ABA containing serum was then added to the CHO cell culture to a final 100 μM ABA concentration for 10 hours and cells were assayed for luciferase activity. The cells were pre-transfected with the activation and reporter DNA constructs for 24 hours.
In plants, ABA had been reported to be unstable due to active enzymatic degradation (Cutler, A. J. and Krochko, J. E. (1999) Formation and breakdown of ABA. Trends Plant Sci. 4, 472-478). […] The activity of residual ABA in the serum was measured by its ability to induce the transcriptional activation of the luciferase reporter in cells expressing the ABA-activator cassette. […] Using this assay, the bioavailability in mice was evaluated. […]

[3] = rat; cited from earlier work

CC1=CC(=O)CC(C)(C)C1(O)/C=C/C(C)=C/C(=O)O (centres unmarked) [ABA, abscisic acid]
phosphorylation of ERK [1]: induced the phosphorylation of ERK
ABA activity retained ([2]; after 24 hours of incubation with CHO cells): about 60%
ABA activity retained ([2]; after 48 hours of incubation with CHO cells): around 23%
reduction in ability to induce transcription of luciferase ([2]; cell culture media, up to 48 hours): no significant reduction
acute oral median lethal dose (LD50) [3]: > 5000 mg/kg
